Results reported in US8309581B2, “Benzimidazole derivatives” (Hoffmann-La Roche Inc., priority 2009, dated 2012).

Target: T1, FXR ligand binding domain (Homo sapiens, UniProt Q96RI1)
T1 construct: made in house; host or cells: E. coli BL21 (pLysS)
T1 sequence (Q96RI1 193-472 isoform Q96RI1-2): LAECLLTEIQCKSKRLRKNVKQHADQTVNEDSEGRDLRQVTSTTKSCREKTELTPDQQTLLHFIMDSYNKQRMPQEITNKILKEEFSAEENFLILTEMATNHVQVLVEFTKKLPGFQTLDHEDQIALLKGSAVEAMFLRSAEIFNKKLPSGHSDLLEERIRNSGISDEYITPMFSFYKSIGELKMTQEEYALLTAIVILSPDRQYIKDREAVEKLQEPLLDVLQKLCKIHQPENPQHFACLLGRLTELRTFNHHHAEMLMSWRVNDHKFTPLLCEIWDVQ
Assay: Radioligand Binding Assay (scintillation proximity radioligand displacement)
Settings: GST-FXR LBD fusion protein on SPA beads, test compound 6×10^−9 M to 2.5×10^−5 M
Outline: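 GST-fused human FXR LBD (aa 193-473, E. coli-expressed, 40 nM) was bound to glutathione SPA beads in 50 mM Hepes pH 7.4, 10 mM NaCl, 5 mM MgCl2, 0.01% CHAPS. Displacement of radioligand (e.g. 20 nM) was measured over 6×10^−9 to 2.5×10^−5 M compound, and IC50 calculated.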

IC50 [nM]	Structure (SMILES)
400	Fc1cc2nc(-c3ccc(Cl)cc3OCc3cccc(-c4nnn[nH]4)c3)n(CC3CCCCC3)c2cc1F [Example 30, 2-{4-Chloro-2-[3-(1H-tetrazol-5-yl)-benzyloxy]-phenyl}-1-cyclohexylmethyl-5,6-difluoro-1H-benzoimidazole]
40	FC1(F)CCC(Cn2c(-c3ccccc3CCc3ccc(-c4nnn[nH]4)cc3)nc3ccccc32)CC1 [Example 81, 1-(4,4-Difluoro-cyclohexylmethyl)-2-(2-{2-[4-(1H-tetrazol-5-yl)-phenyl]-ethyl}-phenyl)-1H-benzoimidazole]
40	Fc1cc2nc(-c3ccccc3OCC3CCCC3)n(Cc3ccc(-c4nnn[nH]4)cc3F)c2cc1F [Example 94, 2-(2-Cyclopentylmethoxy-phenyl)-5,6-difluoro-1-[2-fluoro-4-(1H-tetrazol-5-yl)-benzyl]-1H-benzoimidazole]
40	Fc1cc2nc(-c3ccc(Cl)cc3OCc3ccc(-c4nnn[nH]4)cc3F)n(CC3CCCC3)c2cc1F [Example 42, 2-{4-Chloro-2-[2-fluoro-4-(1H-tetrazol-5-yl)-benzyloxy]-phenyl}-1-cyclopentylmethyl-5,6-difluoro-1H-benzoimidazole]
90	Fc1cc2nc(-c3ccc(Cl)cc3OCc3ccc(-c4nnn[nH]4)cc3F)n(CCC3CCCCC3)c2cc1F [Example 43, 2-{4-Chloro-2-[2-fluoro-4-(1H-tetrazol-5-yl)-benzyloxy]-phenyl}-1-(2-cyclohexyl-ethyl)-5,6-difluoro-1H-benzoimidazole]
500	O=C(O)c1cccc(Cn2c(-c3ccc(Cl)cc3OCC3CCCC3)nc3cc(F)c(F)cc32)c1 [Example 61, 3-[2-(4-Chloro-2-cyclopentylmethoxy-phenyl)-5,6-difluoro-benzoimidazol-1-ylmethyl]-benzoic acid]
5800	O=C(O)c1ccc(COc2ncccc2-c2nc3cc(F)c(F)cc3n2CC2CCCCC2)cc1 [Example 4, 4-[3-(1-Cyclohexylmethyl-5,6-difluoro-1H-benzoimidazol-2-yl)-pyridin-2-yloxymethyl]-benzoic acid]
200	Fc1cc2nc(-c3ccc(Cl)cc3OCc3ccc(-c4nnn[nH]4)s3)n(CC3CCCCC3)c2cc1F [Example 37, 2-{4-Chloro-2-[5-(1H-tetrazol-5-yl)-thiophen-2-ylmethoxy]-phenyl}-1-cyclohexylmethyl-5,6-difluoro-1H-benzoimidazole]
200	O=C(O)c1ccc(COc2cc(Cl)ccc2-c2nc3cc(F)c(F)cc3n2CC2CCCCC2)cc1 [Example 23, 4-[5-Chloro-2-(1-cyclohexylmethyl-5,6-difluoro-1H-benzoimidazol-2-yl)-phenoxymethyl]-benzoic acid]
90	O=C(O)c1ccc(CCc2ccccc2-c2nc3ccccc3n2CC2CCCCC2)cc1 [Example 78, 4-{2-[2-(1-Cyclohexylmethyl-1H-benzoimidazol-2-yl)-phenyl]-ethyl}-benzoic acid]
200	O=C(O)COc1ccc(COc2cc(Cl)ccc2-c2nc3cc(F)c(F)cc3n2Cc2cccc(Cl)c2)cc1 [Example 57, (4-{5-Chloro-2-[1-(3-chloro-benzyl)-5,6-difluoro-1H-benzoimidazol-2-yl]-phenoxymethyl}-phenoxy)-acetic acid]
30	Fc1cc2nc(-c3ccccc3OCc3ccc(-c4nnn[nH]4)cc3F)n(CC3CCCCC3)c2cc1F [Example 34, 1-Cyclohexylmethyl-5,6-difluoro-2-{2-[2-fluoro-4-(1H-tetrazol-5-yl)-benzyloxy]-phenyl}-1H-benzoimidazole]
